Assay results as given in PubChem BioAssay (NCI).
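Results reflect a 48-hour exposure of cells in 96-well plates to compound at five concentrations. Here, GI50 denotes the concentration required for 50% inhibition of growth. Definition used: TGI = concentration required for complete inhibition of growth.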

How the values were obtained:
Test in all cases: NCI tumour cell line growth inhibition, 48 h
OVCAR-5 ovarian = test system: OVCAR-5 ovarian
OVCAR-8 ovarian = test system: OVCAR-8 ovarian
UO-31 renal = test system: UO-31 renal
UACC-62 melanoma = test system: UACC-62 melanoma
SN12C renal = test system: SN12C renal
MOLT-4 leukemia = test system: MOLT-4 leukemia
SNB-75 CNS = test system: SNB-75 CNS
RPMI-8226 leukemia = test system: RPMI-8226 leukemia
SW-620 colon = test system: SW-620 colon
BT-549 breast = test system: BT-549 breast
U251 CNS = test system: U251 CNS
SNB-19 CNS = test system: SNB-19 CNS
SK-MEL-28 melanoma = test system: SK-MEL-28 melanoma
ACHN renal = test system: ACHN renal
NCI-H460 lung = test system: NCI-H460 lung
HS 578T breast = test system: HS 578T breast
MCF7 breast = test system: MCF7 breast
SR leukemia = test system: SR leukemia
A498 renal = test system: A498 renal
HL-60(TB) leukemia = test system: HL-60(TB) leukemia
MALME-3M melanoma = test system: MALME-3M melanoma
M14 melanoma = test system: M14 melanoma
HT29 colon = test system: HT29 colon
A549 NSCLC = test system: A549 NSCLC
HCT-116 colon = test system: HCT-116 colon
T-47D breast = test system: T-47D breast
NCI/ADR-RES ovarian = test system: NCI/ADR-RES ovarian
SF-268 CNS = test system: SF-268 CNS
RXF 393 renal = test system: RXF 393 renal
IGROV1 ovarian = test system: IGROV1 ovarian
HCT-15 colon = test system: HCT-15 colon
SK-MEL-2 melanoma = test system: SK-MEL-2 melanoma
HOP-92 NSCLC = test system: HOP-92 NSCLC
K-562 leukemia = test system: K-562 leukemia
MDA-MB-435 = test system: MDA-MB-435
PC-3 prostate = test system: PC-3 prostate
NCI-H522 lung = test system: NCI-H522 lung
TK-10 renal = test system: TK-10 renal
DU-145 prostate = test system: DU-145 prostate
KM12 colon = test system: KM12 colon
HOP-62 NSCLC = test system: HOP-62 NSCLC
SF-295 CNS = test system: SF-295 CNS
HCC-2998 colon = test system: HCC-2998 colon
NCI-H226 lung = test system: NCI-H226 lung
OVCAR-4 ovarian = test system: OVCAR-4 ovarian
786-0 renal = test system: 786-0 renal
COLO 205 colon = test system: COLO 205 colon
SK-OV-3 ovarian = test system: SK-OV-3 ovarian
SF-539 CNS = test system: SF-539 CNS
CCRF-CEM leukemia = test system: CCRF-CEM leukemia
EKVX NSCLC = test system: EKVX NSCLC
UACC-257 melanoma = test system: UACC-257 melanoma
SK-MEL-5 melanoma = test system: SK-MEL-5 melanoma
NCI-H23 lung = test system: NCI-H23 lung

CCOC(=O)c1c(NC(=O)c2ccccc2C(F)(F)F)sc2c1CCC(=O)C2
GI50 (OVCAR-5 ovarian): 2.52 µM
TGI (OVCAR-5 ovarian): 7.1 µM
GI50 (OVCAR-8 ovarian): 3.4 µM
TGI (OVCAR-8 ovarian): > 100 µM
GI50 (UO-31 renal): 2.3 µM
TGI (UO-31 renal): 7.57 µM
GI50 (UACC-62 melanoma): 2.83 µM
TGI (UACC-62 melanoma): 11.5 µM
GI50 (SN12C renal): 3.06 µM
TGI (SN12C renal): > 100 µM
GI50 (MOLT-4 leukemia): 3.54 µM
TGI (MOLT-4 leukemia): > 100 µM
GI50 (SNB-75 CNS): 1.39 µM
TGI (SNB-75 CNS): 7.14 µM
GI50 (RPMI-8226 leukemia): 1.95 µM
TGI (RPMI-8226 leukemia): 5.46 µM
GI50 (SW-620 colon): 2.64 µM
TGI (SW-620 colon): 10 µM
GI50 (BT-549 breast): 3.35 µM
TGI (BT-549 breast): > 100 µM
GI50 (U251 CNS): 0.792 µM
TGI (U251 CNS): 12 µM
GI50 (SNB-19 CNS): 3.85 µM
TGI (SNB-19 CNS): 41.2 µM
GI50 (SK-MEL-28 melanoma): 4.51 µM
TGI (SK-MEL-28 melanoma): 65 µM
GI50 (ACHN renal): 3.33 µM
TGI (ACHN renal): 10.4 µM
GI50 (NCI-H460 lung): 3.48 µM
TGI (NCI-H460 lung): 12.1 µM
GI50 (HS 578T breast): 4.66 µM
TGI (HS 578T breast): > 100 µM
GI50 (MCF7 breast): 2.79 µM
TGI (MCF7 breast): 30.2 µM
GI50 (SR leukemia): 2.33 µM
TGI (SR leukemia): > 100 µM
GI50 (A498 renal): 11.5 µM
TGI (A498 renal): 49.2 µM
GI50 (HL-60(TB) leukemia): 2.4 µM
TGI (HL-60(TB) leukemia): 6.48 µM
GI50 (MALME-3M melanoma): 2.78 µM
TGI (MALME-3M melanoma): 8 µM
GI50 (M14 melanoma): 3.94 µM
TGI (M14 melanoma): > 100 µM
GI50 (HT29 colon): 3.1 µM
TGI (HT29 colon): 8.75 µM
GI50 (A549 NSCLC): 3.51 µM
TGI (A549 NSCLC): > 100 µM
GI50 (HCT-116 colon): 3.29 µM
TGI (HCT-116 colon): 12.6 µM
GI50 (T-47D breast): 3.12 µM
TGI (T-47D breast): > 100 µM
GI50 (NCI/ADR-RES ovarian): 3.09 µM
TGI (NCI/ADR-RES ovarian): 11.2 µM
GI50 (SF-268 CNS): 3.96 µM
TGI (SF-268 CNS): > 100 µM
GI50 (RXF 393 renal): 2.39 µM
TGI (RXF 393 renal): 8.09 µM
GI50 (IGROV1 ovarian): 3.09 µM
TGI (IGROV1 ovarian): 10.3 µM
GI50 (HCT-15 colon): 2.72 µM
TGI (HCT-15 colon): 10.3 µM
GI50 (SK-MEL-2 melanoma): 2.75 µM
TGI (SK-MEL-2 melanoma): 8.82 µM
GI50 (HOP-92 NSCLC): 1.82 µM
TGI (HOP-92 NSCLC): 5.52 µM
GI50 (K-562 leukemia): 1.98 µM
TGI (K-562 leukemia): > 100 µM
GI50 (MDA-MB-435): 3.18 µM
TGI (MDA-MB-435): 11.6 µM
GI50 (PC-3 prostate): 2.45 µM
TGI (PC-3 prostate): 7.68 µM
GI50 (NCI-H522 lung): 1.92 µM
TGI (NCI-H522 lung): 4.82 µM
GI50 (TK-10 renal): 5.36 µM
TGI (TK-10 renal): > 100 µM
GI50 (DU-145 prostate): 4.44 µM
TGI (DU-145 prostate): > 100 µM
GI50 (KM12 colon): 2.69 µM
TGI (KM12 colon): 7.21 µM
GI50 (HOP-62 NSCLC): 3.71 µM
TGI (HOP-62 NSCLC): > 100 µM
GI50 (SF-295 CNS): 2.58 µM
TGI (SF-295 CNS): 7.64 µM
GI50 (HCC-2998 colon): 3.16 µM
TGI (HCC-2998 colon): 10.5 µM
GI50 (NCI-H226 lung): 2.94 µM
TGI (NCI-H226 lung): 9.47 µM
GI50 (OVCAR-4 ovarian): 3.79 µM
TGI (OVCAR-4 ovarian): > 100 µM
GI50 (786-0 renal): 4.63 µM
TGI (786-0 renal): > 100 µM
GI50 (COLO 205 colon): 2.12 µM
TGI (COLO 205 colon): 4.12 µM
GI50 (SK-OV-3 ovarian): 3.18 µM
TGI (SK-OV-3 ovarian): > 100 µM
GI50 (SF-539 CNS): 1.87 µM
TGI (SF-539 CNS): 3.72 µM
GI50 (CCRF-CEM leukemia): 3.24 µM
TGI (CCRF-CEM leukemia): > 100 µM
GI50 (EKVX NSCLC): 3.41 µM
TGI (EKVX NSCLC): 23.6 µM
GI50 (UACC-257 melanoma): 3.49 µM
TGI (UACC-257 melanoma): 37.8 µM
GI50 (SK-MEL-5 melanoma): 1.88 µM
TGI (SK-MEL-5 melanoma): 3.64 µM
GI50 (NCI-H23 lung): 2.93 µM
TGI (NCI-H23 lung): 9.25 µM
